Measurements reported in BindingDB's records for PubMed 39882870 (University of Modena and Reggio Emilia).
pIC50: −log10 of the molar value.

Target: Adenosine receptor A2a (Homo sapiens) (UniProt P29274)
Experiment: Negative allosteric modulation of A2AR (unknown origin) expressed in CHO cells in presence of adenosine by CamBio assay

Adenosine receptor A2a (Homo sapiens), sequence (P29274 whole entry, looked up): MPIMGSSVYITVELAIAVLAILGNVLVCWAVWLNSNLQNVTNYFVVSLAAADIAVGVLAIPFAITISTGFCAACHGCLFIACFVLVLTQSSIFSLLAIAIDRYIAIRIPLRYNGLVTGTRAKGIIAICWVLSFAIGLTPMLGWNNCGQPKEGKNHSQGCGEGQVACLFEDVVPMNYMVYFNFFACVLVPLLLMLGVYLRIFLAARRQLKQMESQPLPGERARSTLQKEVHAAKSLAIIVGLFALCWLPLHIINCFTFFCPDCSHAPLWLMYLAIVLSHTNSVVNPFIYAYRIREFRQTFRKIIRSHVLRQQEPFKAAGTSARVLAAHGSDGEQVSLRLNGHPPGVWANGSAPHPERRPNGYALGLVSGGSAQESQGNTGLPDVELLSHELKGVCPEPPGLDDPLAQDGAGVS

## N#Cc1c(N)nc(N2CCCCC2)c(C#N)c1-c1cccnc1
  pIC50: 8.05
